The test system of this experiment is P. falciparum 3D7 growth, pLDH absorbance. Put plainly: P. falciparum 3D7 growth inhibition, dose response, strain 3D7 (AID 2305).

Data on 44 compounds can be found in PubChem BioAssay AID2305 (GlaxoSmithKline (GSK), 2010).

Take `c1ccc(-c2ccc(-c3nc4ccccc4[nH]3)cc2)cc1`: the IC50 (commonly the concentration at which inhibition is half-maximal) is 810 nM.

On to `COc1ccc2nccc(N3CCC(CCNCc4cc5c(cn4)OCCO5)CC3)c2n1`, for which the IC50 stood at 220 nM.

`Cc1ccccc1Nc1nc(NCCc2ccccc2)nc2ccccc12`: the IC50 is 1260 nM.

Turning to `Cc1cccc2c3c([nH]c12)C1(CCN(Cc2ccccc2)CC1)NC(C(=O)NCc1ccccc1)C3` (centres undefined), the IC50 stood at 1370 nM. The IC50 values of the last two compounds are within 1.5-fold of each other.

Consider `CNc1ccc(CNCc2ccc(-c3ccc(-c4nc5ccc(C(F)(F)F)cc5[nH]4)s3)cc2)cc1`, for which the IC50 was determined as 180 nM.

In turn, `COc1ccc(COc2c(OC)cc(Cc3cnc(N)nc3N)cc2OC)cc1` had a concentration for half-maximal inhibition (IC50) of 910 nM.

For `O=C(CNCC1CCCCC1)Nc1cc(C(F)(F)F)ccc1Cl`, the IC50 amounted to 980 nM.

The compound `COc1cc2c(cc1S(=O)(=O)c1ccc(NC(=O)Nc3ccc(F)cc3)cc1)CCN(C)CC2` yielded an IC50 of 470 nM.

`CN(C)CCCN1CCN(C(=O)c2cccc(-c3noc(C(F)(F)F)n3)c2)CC1` showed an IC50 of 350 nM.

In turn, `N#Cc1ccc2c(c1)CCN(CCC1CCC(NC(=O)/C=C/c3ccc4ccccc4c3)CC1)CC2` (centres undefined) gave an IC50 of 720 nM.

In the case of `COc1ccc2[nH]cc(C3=CCN(Cc4ccccc4)CC3)c2c1`, the IC50 was determined as 570 nM.

The compound `CCCCc1ccc(-c2ccc3[nH]c(C)c(Br)c(=O)c3c2)cc1` displayed an IC50 of 110 nM.

Turning to `Cc1cccc(CN2CCCN(Cc3ccc(C(=O)Nc4ccc(C(C)(C)C)cc4)cc3)CC2)c1`, the IC50 is 730 nM.

The compound `O=C(Nc1ccc(-c2cccc(-c3nc4ccccc4[nH]3)c2)cc1)N[C@@H]1C[C@H]1c1ccccc1` yielded an IC50 of 630 nM. This IC50 and that of the compound before are within 1.5-fold of each other.

With `CN(C)CCCNCc1ccc(-c2ccc(CNCCc3ccccc3)cc2)cc1`, the half-maximal inhibitory concentration (IC50) stood at 990 nM.

As for `CCOC(=O)NC1=NC(C)(C)N(OCc2ccc(Cl)c(Cl)c2)C(N)=N1`, the IC50 was 40 nM.

`Fc1ccc2nc(-c3ccc(-c4ccc(CN5CCC(CCN6CCCCC6)CC5)cc4)cc3)[nH]c2c1` yielded an IC50 of 130 nM.

As for `COc1cc(C(=O)NC2CC(C)(C)N(C)C(C)(C)C2)ccc1-c1cc2cc(Cl)c(Cl)cc2[nH]1`, the IC50 turned out to be 1140 nM. This IC50 is about 8.8-fold higher than that of the compound before.

`CCCCCCCCN1CCN(CCCCCCNc2c3ccccc3nc3ccccc23)CC1` yielded an IC50 of 160 nM.

With `CN1CCC(C(=O)N(Cc2ccc(-c3ccc(CNCCc4ccc(S(C)(=O)=O)cc4)cn3)cc2)Cc2cccc(F)c2)CC1`, the 50% inhibitory concentration (IC50) was 710 nM. Compared with the last compound, the IC50 is about 4.4-fold higher.

Consider `CN1CCCN(Cc2cccc(-c3ccc(CNC(=O)c4cccc(Cl)c4)c(F)c3)c2)CC1`, for which the IC50 amounted to 190 nM.

`Cc1ccc2c(-c3ccc([N+](=O)[O-])o3)cc(C)nc2c1` registered a 50% inhibitory concentration (IC50) of 40 nM. Compared with the last compound, the IC50 is about 4.8-fold lower.

Regarding `Cc1cc(F)ccc1-c1nc(NCCCN2CCCC2=O)nc2c1ccc(=O)n2-c1c(F)cccc1F`, the IC50 came out at 1020 nM.

On to `Clc1ccc(CCNCCCCCCNCCc2ccc3c(c2)OCO3)cc1`, for which the IC50 was found to be 1730 nM. Against the preceding compound, the IC50 is about 1.7-fold higher.

Compound `c1ccc(COc2ccc(Nc3ncnc4ccc(-c5ccc(CN6CCSCC6)o5)cc34)cc2)cc1` came in with an IC50 of 830 nM. Against the preceding compound, the IC50 is about 2.1-fold lower.

As to `FC(F)(F)c1ccc2nc(-c3ccc(-c4cccc(CNCc5ccccc5)c4)s3)[nH]c2c1`, the IC50 came to 150 nM.

The compound `COc1cccc(-c2nc3c(N4CCN(c5ccncc5)CC4)cccc3n2CC2CCCCCN2)n1` (centres undefined) registered an IC50 of 1060 nM. This IC50 lies about 7.1-fold higher than the previous one.

`Cc1cccc2[nH]c(C3CCN(CC4CCN(C(=O)/C=C/c5ccc(Cl)c(Cl)c5)CC4)CC3)nc12`: the concentration for half-maximal inhibition (IC50) was 480 nM. This IC50 lies about 2.2-fold lower than the previous one.

For the compound `CC(=O)c1cccc(NC(=O)c2ccc(Cl)c(S(=O)(=O)N3CCc4ccccc43)c2)c1`, the IC50 amounted to 1640 nM.

`CCCCOC(=O)[C@H](CCC)NC(=O)c1ccc(NS(=O)(=O)c2ccc3nc(N)[nH]c(=O)c3c2)cc1`: the IC50 was 200 nM.

As for `CCCCCC(C)C(C)c1cc(O)c2c(c1)OC(C)(C)CC2(O)c1ccccn1` (centres undefined), the IC50 was 740 nM.

Turning to `CC(ON1C(N)=NC(N)=NC1(C)C)c1ccccc1` (centres undefined), the 50% inhibitory concentration (IC50) stood at 10 nM.

In turn, `CC(C)(C)c1ccc(NC(=O)Nc2ccc(Cn3ncc(N4CCCNCC4)c(Cl)c3=O)cc2)cc1` gave an IC50 of 750 nM.

For `CCCCCCCN1CC[C@@H](CCC(O)c2ccnc3ccc(OC)cc23)[C@@H](CC)C1` (some centres undefined), the IC50 stood at 750 nM.

In the case of `CCOC(=O)c1cc(C(=O)NCCCCN2CCC(c3ccc4c(c3OC)CCCC4)CC2)ccc1-c1ccc(C(F)(F)F)cc1`, the IC50 amounted to 710 nM.

Consider `Cc1nc(N=C(N)N)nc2ccc(C(C)(C)C)cc12`, for which the half-inhibitory concentration (IC50) was 750 nM.

`Nc1c2c(nc3ccc(NC(=O)CCCCCCc4ccccc4)cc13)CCCC2`: the IC50 amounted to 250 nM. This IC50 is about 3-fold lower than that of the compound before.

With `CCOc1c(Br)cc(Br)cc1CNCCCCNc1nc2ccccc2[nH]1`, the IC50 is 390 nM. This IC50 is about 1.6-fold higher than that of the compound before.

Compound `Cc1c2ccncc2c(C)c2c1[nH]c1cc(Cc3ccccc3)c(O)cc12` displayed a half-inhibitory concentration (IC50) of 150 nM.

`Fc1cccc(C=NNc2ccnc3ccccc23)c1` showed an IC50 of 840 nM.

For the compound `Cc1ccccc1C1CCN(C2CCC(NC(=O)/C=C/c3cc(F)ccc3F)CC2)CC1` (centres undefined), the IC50 came out at 1040 nM.

For the compound `CC(C)N1CCN(c2ccc(OCCCCN3CCN(c4cccc(Cl)c4Cl)CC3)c(C(F)(F)F)c2)CC1`, the IC50 amounted to 820 nM.

On to `O=[N+]([O-])c1cccc(Nc2nccc(-c3cnn4ncccc34)n2)c1`, for which the IC50 came to 180 nM.

With `COc1ccc2[nH]c3ccccc3c(=O)c2c1`, the IC50 is 1000 nM.
